Read-outs that look alike come from different tables or passages of the source. Bounds are passed on as bounds.

Assay [1] relates to HEK293 cells. The experiment in a line: Cellular growth inhibition assay (CellTiter-Glo), HEK293 cells. It is filed as cell-based. The conditions noted are these: read-out: CTG HEK293 GI50. A digest of the protocol: (§1)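 HeLa or HEK293 cells in DMEM with 10% FBS exposed to titrated compound for three days at 37 °C, 5% CO2, 24 h after seeding. Viability by CellTiter-Glo 2.0 luminescence, normalized to DMSO Day 0 and Day 3 readings; four-parameter fit gives GI50.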

The test system of assay [2] is HeLa cells. The experiment in a line: Cellular growth inhibition assay (CellTiter-Glo), HeLa cells. The assay is classed as cell-based. The settings on record: read-out: CTG HELA GI50. A digest of the protocol:
as §1
On the technique in general: Cellular ATP, detected with luciferase, serves as a proxy for viable cell number.

Assay [3] concerns the target BTK (Homo sapiens (Human), UniProt Q06187). The experiment in a line: KdELECT assay for binding affinity to BTK. Here is the method:
(§2) Compounds were tested using a KdELECT assay. Kinase-tagged T7 phage strains were prepared in an E. coli host derived from the BL21 strain. E. coli were grown to log-phase and infected with T7 phage and incubated with shaking at 32° C. until lysis. The lysates were centrifuged and filtered to remove cell debris. The remaining kinases were produced in HEK-293 cells and subsequently tagged with DNA for qPCR detection. Streptavidin-coated magnetic beads were treated with biotinylated small molecule ligands for 30 minutes at room temperature to generate affinity resins for kinase assays. The liganded beads were blocked with excess biotin and washed with blocking buffer (SeaBlock (Pierce), 1% BSA, 0.05% Tween 20, 1 mM DTT) to remove unbound ligand and to reduce non-specific binding. Binding reactions were assembled by combining kinases, liganded affinity beads, and test compounds in 1× binding buffer (20% SeaBlock, 0.17×PBS, 0.05% Tween 20, 6 mM DTT). Test compounds were prepared as 111X stocks in 100% DMSO. Kd values were determined using an 11-point 3-fold compound dilution series with three DMSO control points. All compounds for Kd measurements are distributed by acoustic transfer (non-contact dispensing) in 100% DMSO. The compounds were then diluted directly into the assays such that the final concentration of DMSO was 0.9%. All reactions performed in polypropylene 384-well plate. Each was a final volume of 0.02 mL. The assay plates were incubated at room temperature with shaking for 1 hour and the affinity beads were washed with wash buffer (1×PBS, 0.05% Tween 20). The beads were then re-suspended in elution buffer (1×PBS, 0.05% Tween 20, 0.5 μM nonbiotinylated affinity ligand) and incubated at room temperature with shaking for 30 minutes. The kinase concentration in the eluates was measured by qPCR.

Assay [4] addresses CDK9 (Homo sapiens (Human), UniProt P50750). As to the kind of experiment: KdELECT assay for binding affinity to CDK9. Here is the method: as §2, with “KdELECT.” for “KdELECT assay.”, “1×binding” for “1× binding”
[5] abbreviates: Homo sapiens, 72 h, HEK293 cells, three days of compound treatment, CellTiter-Glo 2.0.
Setting [6] is: Homo sapiens, 72 h, HeLa cells, three days of compound treatment, CellTiter-Glo 2.0.
The mark [7] stands for this setting: HEK293 cells, three days of compound treatment, CellTiter-Glo 2.0.
The mark [8] stands for this setting: HeLa cells, three days of compound treatment, CellTiter-Glo 2.0.

Sequence of CDK9 (P50750 whole entry): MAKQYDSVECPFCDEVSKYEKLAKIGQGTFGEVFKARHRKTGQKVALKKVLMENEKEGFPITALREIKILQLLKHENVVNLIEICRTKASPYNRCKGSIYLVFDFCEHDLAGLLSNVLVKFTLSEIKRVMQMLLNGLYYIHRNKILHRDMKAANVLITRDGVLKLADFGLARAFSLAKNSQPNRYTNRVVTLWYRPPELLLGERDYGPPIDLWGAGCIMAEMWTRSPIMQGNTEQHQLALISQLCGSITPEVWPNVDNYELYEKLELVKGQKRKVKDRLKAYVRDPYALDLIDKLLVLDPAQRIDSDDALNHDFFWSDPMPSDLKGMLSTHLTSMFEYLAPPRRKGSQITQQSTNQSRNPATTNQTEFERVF
Sequence of BTK (Q06187 whole entry): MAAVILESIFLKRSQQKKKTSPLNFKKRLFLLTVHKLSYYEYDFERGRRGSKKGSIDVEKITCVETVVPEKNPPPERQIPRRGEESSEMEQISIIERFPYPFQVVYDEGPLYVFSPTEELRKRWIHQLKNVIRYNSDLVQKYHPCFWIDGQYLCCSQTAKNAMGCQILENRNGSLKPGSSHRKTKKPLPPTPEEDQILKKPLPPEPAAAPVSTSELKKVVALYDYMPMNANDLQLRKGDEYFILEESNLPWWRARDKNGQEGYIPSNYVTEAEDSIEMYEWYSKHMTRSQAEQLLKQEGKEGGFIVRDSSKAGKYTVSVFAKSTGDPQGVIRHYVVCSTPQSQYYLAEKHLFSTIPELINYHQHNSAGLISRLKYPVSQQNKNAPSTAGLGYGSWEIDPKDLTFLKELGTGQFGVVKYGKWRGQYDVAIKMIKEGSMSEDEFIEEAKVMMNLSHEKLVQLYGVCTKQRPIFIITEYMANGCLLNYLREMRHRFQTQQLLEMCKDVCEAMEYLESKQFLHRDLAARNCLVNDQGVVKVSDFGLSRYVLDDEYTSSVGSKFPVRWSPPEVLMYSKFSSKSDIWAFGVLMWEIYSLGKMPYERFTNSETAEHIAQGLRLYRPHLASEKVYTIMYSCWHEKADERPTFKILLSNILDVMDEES

Turning to `CN(C/C=C/C(=O)N1CCC[C@@H](n2nc(-c3ccc(Oc4ccccc4)cc3)c3c(N)ncnc32)C1)CCOCCOCCOCCOCCNS(=O)(=O)c1ccc(Nc2ncc(Br)c(Nc3cccc(F)c3C(N)=O)n2)cc1` [Compound I-64, 2-[[2-[4-[2-[2-[2-[2-[2-[[(E)-4-[(3R)-3-[4-amino-3-(4-phenoxyphenyl)pyrazolo[3,4-d]pyrimidin-1-yl]-1-piperidyl]-4-oxo-but-2-enyl]-methyl-amino]ethoxy]ethoxy]ethoxy]ethoxy]ethylsulfamoyl]anilino]-5-bromo-pyrimidin-4-yl]amino]-6-fluoro-benzamide], the results for the 50% growth inhibitory concentration (GI50) in assay [1] (setting [5]) and in assay [2] (setting [6]) were greater than 5000 nM and 1500 to 5000 nM, respectively. Also, the figures for the Kd in assay [3] and in assay [4] were less than 50 nM and 500 to 2500 nM, respectively.

Regarding `NC(=O)c1c(F)cccc1Nc1nc(Nc2ccc(S(=O)(=O)NCCOCCOCCOC3CCN(C/C=C/C(=O)N4CCC[C@@H](n5nc(-c6ccc(Oc7ccccc7)cc6)c6c(N)ncnc65)C4)CC3)cc2)ncc1Br` [Compound I-68, 2-[[2-[4-[2-[2-[2-[[1-[(E)-4-[(3R)-3-[4-amino-3-(4-phenoxyphenyl)pyrazolo[3,4-d]pyrimidin-1-yl]-1-piperidyl]-4-oxo-but-2-enyl]-4-piperidyl]oxy]ethoxy]ethoxy]ethylsulfamoyl]anilino]-5-bromo-pyrimidin-4-yl]amino]-6-fluoro-benzamide], the equilibrium dissociation constant (Kd) is less than 50 nM in assay [3] and 500 to 2500 nM in assay [4].

For `CCc1cnn2c(NCc3ccc(OCCCN4CCN(CCCN(C)C/C=C/C(=O)N5CCC[C@@H](n6nc(-c7ccc(Oc8ccccc8)cc7)c7c(N)ncnc76)C5)CC4)nc3)cc(N3CCCC[C@H]3CCO)nc12` [Compound I-69], the concentration for 50% growth inhibition (GI50) in assay [1] (setting [7]) and in assay [2] (setting [8]) was less than 500 nM throughout. The Kd in assay [3] and in assay [4] was less than 50 nM each time.

With `CCc1cnn2c(NCc3ccc(OCCOCCOCCOC4CCN(C/C=C/C(=O)N5CCC[C@@H](n6nc(-c7ccc(Oc8ccccc8)cc7)c7c(N)ncnc76)C5)CC4)nc3)cc(N3CCCC[C@H]3CCO)nc12` [Compound I-70, (E)-1-((R)-3-(4-amino-3-(4-phenoxyphenyl)-1H-pyrazolo[3,4-d]pyrimidin-1-yl)piperidin-1-yl)-4-(4-(2-(2-(2-((5-(((3-ethyl-5-((S)-2-(2-hydroxyethyl)piperidin-1-yl)pyrazolo[1,5-a]pyrimidin-7-yl)amino)methyl)pyridin-2-yl)oxy)ethoxy)ethoxy)ethoxy)piperidin-1-yl) but-2-en-1-one], the 50% growth inhibitory concentration (GI50) in assay [1] (setting [5]) is 500 to 1500 nM; in assay [2] (setting [6]), less than 500 nM. Further, the equilibrium dissociation constant (Kd) in assay [3] is less than 50 nM; in assay [4], 50 to 500 nM.

Regarding `CCc1cnn2c(NCc3ccc(OCCCN4CCN(CCCN(C)C/C=C/C(=O)N(C)CCOc5c(N)ncnc5-c5cc(F)cc(NC(=O)c6ccc(C7CC7)cc6F)c5C)CC4)nc3)cc(N3CCCC[C@H]3CCO)nc12` [Compound I-81, N-[3-[6-amino-5-[2-[[(E)-4-[3-[4-[3-[5-[[[3-ethyl-5-[(2S)-2-(2-hydroxyethyl)-1-piperidyl]pyrazolo[1,5-a]pyrimidin-7-yl]aminomethyl]-2-pyridyl]oxy]propyl]piperazin-1-yl]propyl-methyl-amino]but-2-enoyl]-methyl-amino]ethoxy]pyrimidin-4-yl]-5-fluoro-2-methyl-phenyl]-4-cyclopropyl-2-fluoro-benzamide], the concentration for 50% growth inhibition (GI50) in assay [1] (setting [7]) and in assay [2] (setting [8]) was less than 500 nM in each case. In addition, the Kd in assay [3] and in assay [4] was less than 50 nM each time.

Consider `CCc1cnn2c(NCc3ccc(OCCOCCOCCOC4CCN(C/C=C/C(=O)N(C)CCOc5c(N)ncnc5-c5cc(F)cc(NC(=O)c6ccc(C7CC7)cc6F)c5C)CC4)nc3)cc(N3CCCC[C@H]3CCO)nc12` [Compound I-82, (S,E)-N-(3-(6-amino-5-(2-(4-(4-(2-(2-(2-((5-(((3-ethyl-5-(2-(2-hydroxyethyl)piperidin-1-yl)pyrazolo[1,5-a]pyrimidin-7-yl)amino)methyl)pyridin-2-yl)oxy)ethoxy)ethoxy)ethoxy)piperidin-1-yl)-N-methylbut-2-enamido)ethoxy)pyrimidin-4-yl)-5-fluoro-2-methylphenyl)-4-cyclopropyl-2-fluorobenzamide], for which the figures for the GI50 in assay [1] (setting [5]) and in assay [2] (setting [6]) were 1500 to 5000 nM and 500 to 1500 nM, respectively. The equilibrium dissociation constant (Kd) is 50 to 500 nM in assay [3] and less than 50 nM in assay [4].

In the case of `CCc1cnn2c(NCc3ccc(OCCOCCOCCOCCOCCN(C)C/C=C/C(=O)N(C)CCOc4c(N)ncnc4-c4cc(F)cc(NC(=O)c5ccc(C6CC6)cc5F)c4C)nc3)cc(N3CCCC[C@H]3CCO)nc12` [Compound I-77], the Kd in assay [3] is 500 to 2500 nM; in assay [4], 50 to 500 nM.

For `CCc1cnn2c(NCc3ccc(CCOCCOCCN(C)C/C=C/C(=O)N4CCC[C@@H](n5nc(-c6ccc(Oc7ccccc7)cc6)c6c(N)ncnc65)C4)nc3)cc(N3CCCC[C@H]3CCO)nc12` [Compound I-67, (E)-1-((R)-3-(4-amino-3-(4-phenoxyphenyl)-1H-pyrazolo[3,4-d]pyrimidin-1-yl)piperidin-1-yl)-4-((2-(2-(2-(5-(((3-ethyl-5-((S)-2-(2-hydroxyethyl)piperidin-1-yl)pyrazolo[1,5-a]pyrimidin-7-yl)amino)methyl)pyridin-2-yl)ethoxy)ethoxy)ethyl)(methyl)amino)but-2-en-1-one], the Kd in assay [3] and in assay [4] was less than 50 nM in each case.

As for `CCc1cnn2c(NCc3ccc(OCCOCCOCC(=O)N4CC(=O)N(c5cc(C#N)ccn5)[C@H](C(=O)N(c5cc(F)cc(F)c5)[C@H](C(=O)NC5CC(F)(F)C5)c5ccccc5Cl)C4)nc3)cc(N3CCCC[C@H]3CCO)nc12` [Compound I-97, (2S)—N-[(1S)-1-(2-chlorophenyl)-2-[(3,3-difluorocyclobutyl)amino]-2-oxo-ethyl]-1-(4-cyano-2-pyridyl)-N-(3,5-difluorophenyl)-4-[2-[2-[2-[[5-[[[3-ethyl-5-[(2S)-2-(2-hydroxyethyl)-1-piperidyl]pyrazolo[1,5-a]pyrimidin-7-yl]amino]methyl]-2-pyridyl]oxy]ethoxy]ethoxy]acetyl]-6-oxo-piperazine-2-carboxamide], the 50% growth inhibitory concentration (GI50) in assay [1] (Homo sapiens, HEK293, 72 h) was less than 500 nM; in assay [2] (Homo sapiens, HeLa, 72 h) it was less than 500 nM. For the same compound, the equilibrium dissociation constant (Kd) in assay [4] lay within 50 to 500 nM.

As for `CCc1cnn2c(NCc3ccc(OCCOCCOCCNS(=O)(=O)c4cc(F)cc(N(C(=O)[C@@H]5CCC(=O)N5c5cc(C#N)ccn5)C(C(=O)NC5CC(F)(F)C5)c5ccccc5Cl)c4)nc3)cc(N3CCCC[C@H]3CCO)nc12` (stereo partly shown) [Compound I-92], the 50% growth inhibitory concentration (GI50) in assay [1] (setting [7]) and in assay [2] (setting [8]) was less than 500 nM throughout. Besides, in assay [4], the Kd lay within 500 to 2500 nM.

Turning to `Cc1c(NC(=O)c2ccc(C3CC3)cc2F)cc(F)cc1-c1ncnc(N)c1OCCN(C)C(=O)/C=C/CN1CCC(OCCOCCOCCNS(=O)(=O)c2ccc(Nc3ncc(Br)c(Nc4cccc(F)c4C(N)=O)n3)cc2)CC1` [Compound I-80, 2-[[2-[4-[2-[2-[2-[[1-[(E)-4-[2-[4-amino-6-[3-[(4-cyclopropyl-2-fluoro-benzoyl)amino]-5-fluoro-2-methyl-phenyl]pyrimidin-5-yl]oxyethyl-methyl-amino]-4-oxo-but-2-enyl]-4-piperidyl]oxy]ethoxy]ethoxy]ethylsulfamoyl]anilino]-5-bromo-pyrimidin-4-yl]amino]-6-fluoro-benzamide], the dissociation constant Kd in assay [3] is less than 50 nM; in assay [4], 50 to 500 nM.

As usually defined, the GI50 is the concentration at which growth is held to half of that of the control. One may read the Kd as a measure of binding affinity in units of concentration. The low end stands for higher affinity, the high end for lower affinity.

The values above are taken from US20250136619A1, “HETEROBIFUNCTIONAL COMPOUNDS AND THEIR USE IN TREATING DISEASE” (HALDA THERAPEUTICS OPCO, INC., priority 2021, published 2025).
